From ChEMBL document CHEMBL1136430, “Chain-branched acyclic phenethylthiocarbamates as vanilloid receptor antagonists” (Bioorg Med Chem Lett, 2003)

How the values were obtained:
Vanilloid receptor [1] = target: T1, Vanilloid receptor (Rattus norvegicus, UniProt Q9ERZ8+Q9WUD2+O35433); experiment: Ability to cause [Ca2+] influx in neonatal rat cultured spinal sensory neurons.; format: functional
Vanilloid receptor [2] = target: T1, Vanilloid receptor; experiment: Ability to inhibit [Ca2+] influx neonatal rat cultured spinal sensory neurons.; format: functional

Compound	EC50 (Vanilloid receptor [1])	IC50 (Vanilloid receptor [2])
CCC(CCc1ccc(O)c(OC)c1)O/C(S)=N/CCc1ccccc1 (stereo not given)	> 100 µM	6.3 µM
COc1cc(CCC(CCc2ccc(C(F)(F)F)cc2)O/C(S)=N/CCc2ccccc2)ccc1O (stereo not given)	> 100 µM	10.7 µM
CCC(CCc1ccc(O)c(OC)c1)CC(=O)NCCc1ccccc1 (stereo not given)	> 100 µM	> 30 µM
CCCC(CCc1ccc(O)c(OC)c1)O/C(S)=N/CCc1ccccc1 (stereo not given)	> 100 µM	27.9 µM
COc1cc(CC(C)O/C(S)=N/CCc2ccccc2)ccc1O (stereo not given)	> 100 µM	> 30 µM
COc1cc(CCC(CCc2ccccc2)O/C(S)=N/CCc2ccccc2)ccc1O (stereo not given)	> 100 µM	19.2 µM
CCC(CCc1ccc(O)c(OC)c1)N(C)/C(S)=N/CCc1ccccc1 (stereo not given)	> 100 µM	27.2 µM
CCC(CCc1ccc(O)c(OC)c1)NC(=O)NCCc1ccccc1 (stereo not given)	> 100 µM	> 30 µM
CCC(CCc1ccc(O)c(OC)c1)N(CCc1ccccc1)/C(S)=N/CCc1ccccc1 (stereo not given)	> 100 µM	> 30 µM
CCC(CCc1ccc(O)c(OC)c1)OC(=O)NCCc1ccccc1 (stereo not given)	> 100 µM	> 30 µM
COc1cc(CCCC(C)O/C(S)=N/CCc2ccccc2)ccc1O (stereo not given)	> 100 µM	> 30 µM
CCC(CCc1ccc(O)c(OC)c1)C/C(S)=N/CCc1ccccc1 (stereo not given)	> 100 µM	> 30 µM
COc1cc(CCC(Cc2ccccc2)O/C(S)=N/CCc2ccccc2)ccc1O (stereo not given)	> 100 µM	25 µM
COc1cc(CCC(O/C(S)=N/CCc2ccccc2)c2ccccc2)ccc1O (stereo not given)	> 100 µM	> 30 µM
CCC(CCc1ccc(O)c(OC)c1)N(Cc1ccccc1)/C(S)=N/CCc1ccccc1 (stereo not given)	> 100 µM	20.9 µM
COc1cc(CCCO/C(S)=N/CCc2ccccc2)ccc1O	> 100 µM	> 30 µM
COc1cc(CCC(CCCc2ccccc2)O/C(S)=N/CCc2ccccc2)ccc1O (stereo not given)	> 100 µM	> 30 µM
COc1cc(CCC(C)O/C(S)=N/CCc2ccccc2)ccc1O (stereo not given)	> 100 µM	9.9 µM
CCC(CCc1ccc(O)c(OC)c1)/N=C(\S)NCCc1ccccc1 (stereo not given)	> 100 µM	28.5 µM
Oc1cc2c(cc1O)CN(C(=S)NCCc1ccc(Cl)cc1)CCC2 [CAPSAZEPINE]	> 100 µM	0.6 µM
